From patent US4996204A, “Pyrido[2,3-d]pyridazinones as aldose reductase inhibitors” (Pfizer Inc., priority 1989, dated 1991)

Target: T1, partially purified aldose reductase enzyme obtained from human placenta (Homo sapiens, UniProt P15121)
T1 construct: partially purified aldose reductase enzyme obtained from human placenta; from tissue; host or cells: human placenta
Test: inhibition of aldose reductase enzyme activity (procedure of S. Hayman et al. as modified by K. Sestanj et al.)
Assay type: biochemical
Conditions: read-out: Percent Inhibition (%) of aldose reductase enzyme activity; for inhibition at 10 µM: 10^-5 M; for inhibition at 1 µM: 10^-6 M; for inhibition at 0.1 µM: 10^-7 M
From the text: Hayman et al., as described in the Journal of Biological Chemistry, Vol. 240, p. 877 (1965) and as modified by K. Sestanj et al. in U.S. Pat. […] In every case, the substrate employed was partially purified aldose reductase enzyme obtained from human placenta.

Row | SMILES | inhibition at 10 µM [%] | inhibition at 1 µM [%] | inhibition at 0.1 µM [%]
1 | O=C(O)Cc1nn(Cc2nc3cc(C(F)(F)F)ccc3s2)c(=O)c2cccnc12 [Example 15, 6-(5-trifluoromethylbenzothiazole-2-ylmethyl) -5-oxo-6H-pyrido[2,3-d]pyridazine-8-ylacetic acid] | 88 | 81 | 74
2 | O=C(O)Cc1nn(Cc2nc3cc(F)ccc3s2)c(=O)c2cccnc12 [Example 16, 6-(5-fluorobenzothiazole-2-ylmethyl)-5-oxo-6H-pyrido[2,3-d]pyridazine-8-ylacetic acid] | 94 | 91 | 90
3 | O=C(O)Cc1nn(Cc2nc3cc(F)cc(F)c3s2)c(=O)c2cccnc12 [Example 17] | 75 | 65 | 39
4 | O=C(O)Cc1nn(Cc2nc3cc(Br)ccc3o2)c(=O)c2cccnc12 [Example 18, 6-(5-bromobenzoxazole-2-ylmethyl)-5-oxo-6H-pyrido[2,3-d]pyridazine-8-ylacetic acid] | 93 | 87 | 31
5 | O=C(O)Cc1nn(Cc2cc3c(Cl)cccc3s2)c(=O)c2cccnc12 [Example 19, 6-(4-chlorobenzothiophene-2-ylmethyl)-5-oxo-6H-pyrido[2,3-d]pyridazine-8-ylacetic acid] | 80 | 60 | 8
6 | O=C(O)Cc1nn(Cc2noc(-c3ccccc3C(F)(F)F)n2)c(=O)c2cccnc12 [Example 20, 6-[5-(2-trifluoromethylphenyl)-1,2,4-oxadiazole-3-ylmethyl]-5-oxo-6H-pyrido[2,3-d]pyridazine-8-ylacetic acid] | 77 | 72 | 43
7 | O=C(O)Cc1nn(Cc2ccc(Br)cc2F)c(=O)c2cccnc12 [Example 21, 6-(4-bromo-2-fluorobenzyl)-5-oxo-6H-pyrido[2,3-d]pyridazine-8-ylacetic acid] | 86 | 76 | 30
